Laboratory results from BigSolDB 2.1.

O=C(O)CNCc1ccccc1
solubility (mole fraction) (in 1,4-dioxane, 283.15 K): 3.3e-05 | solubility (mole fraction) (in 1,4-dioxane, 293.15 K): 5.5e-05 | solubility (mole fraction) (in 1,4-dioxane, 303.15 K): 8.4e-05 | solubility (mole fraction) (in 1,4-dioxane, 313.15 K): 0.00015 | solubility (mole fraction) (in 1,4-dioxane, 323.15 K): 0.000211 | solubility (mole fraction) (in acetone, 283.15 K): 7.1e-05 | solubility (mole fraction) (in acetone, 293.15 K): 9.4e-05 | solubility (mole fraction) (in acetone, 303.15 K): 0.000133 | solubility (mole fraction) (in acetone, 313.15 K): 0.000165 | solubility (mole fraction) (in acetone, 323.15 K): 0.00024 | solubility (mole fraction) (in acetonitrile, 283.15 K): 5e-06 | solubility (mole fraction) (in acetonitrile, 293.15 K): 1.1e-05 | solubility (mole fraction) (in acetonitrile, 303.15 K): 1.7e-05 | solubility (mole fraction) (in acetonitrile, 313.15 K): 2.8e-05 | solubility (mole fraction) (in acetonitrile, 323.15 K): 4e-05 | solubility (mole fraction) (in dichloromethane, 283.15 K): 9e-06 | solubility (mole fraction) (in dichloromethane, 288.15 K): 2.1e-05 | solubility (mole fraction) (in dichloromethane, 293.15 K): 3.4e-05 | solubility (mole fraction) (in dichloromethane, 298.15 K): 4.2e-05 | solubility (mole fraction) (in dichloromethane, 303.15 K): 5.7e-05 | solubility (mole fraction) (in ethanol, 283.15 K): 0.000222 | solubility (mole fraction) (in ethanol, 293.15 K): 0.000326 | solubility (mole fraction) (in ethanol, 303.15 K): 0.00043 | solubility (mole fraction) (in ethanol, 313.15 K): 0.000526 | solubility (mole fraction) (in ethanol, 323.15 K): 0.000709 | solubility (mole fraction) (in ethyl acetate, 283.15 K): 1.1e-05 | solubility (mole fraction) (in ethyl acetate, 293.15 K): 3.3e-05 | solubility (mole fraction) (in ethyl acetate, 303.15 K): 6.7e-05 | solubility (mole fraction) (in ethyl acetate, 313.15 K): 0.000102 | solubility (mole fraction) (in ethyl acetate, 323.15 K): 0.000173 | solubility (mole fraction) (in isopropanol, 283.15 K): 6e-05 | solubility (mole fraction) (in isopropanol, 293.15 K): 8e-05 | solubility (mole fraction) (in isopropanol, 303.15 K): 9.6e-05 | solubility (mole fraction) (in isopropanol, 313.15 K): 0.00012 | solubility (mole fraction) (in isopropanol, 323.15 K): 0.000173 | solubility (mole fraction) (in methanol, 283.15 K): 0.00217 | solubility (mole fraction) (in methanol, 293.15 K): 0.00269 | solubility (mole fraction) (in methanol, 303.15 K): 0.00335 | solubility (mole fraction) (in methanol, 313.15 K): 0.00416 | solubility (mole fraction) (in methanol, 323.15 K): 0.0053 | solubility (mole fraction) (in n-butanol, 283.15 K): 0.000166 | solubility (mole fraction) (in n-butanol, 293.15 K): 0.000203 | solubility (mole fraction) (in n-butanol, 303.15 K): 0.000262 | solubility (mole fraction) (in n-butanol, 313.15 K): 0.000338 | solubility (mole fraction) (in n-butanol, 323.15 K): 0.000397 | solubility (mole fraction) (in n-propanol, 283.15 K): 0.000214 | solubility (mole fraction) (in n-propanol, 293.15 K): 0.000266 | solubility (mole fraction) (in n-propanol, 303.15 K): 0.000306 | solubility (mole fraction) (in n-propanol, 313.15 K): 0.00037 | solubility (mole fraction) (in n-propanol, 323.15 K): 0.000456 | solubility (mole fraction) (in water, 283.15 K): 0.00909 | solubility (mole fraction) (in water, 293.15 K): 0.0113 | solubility (mole fraction) (in water, 303.15 K): 0.014 | solubility (mole fraction) (in water, 313.15 K): 0.0169 | solubility (mole fraction) (in water, 323.15 K): 0.0214
